A melting point compilation (Tetko et al.; mined from patent text by program, amines drawn as free bases though some values may be those of a salt)

melting point [°C] | SMILES
174 to 176 | CCOc1cc2c3ccccc3c(C=O)cc2c2ccccc12
72 to 74 | COc1cc(C=CC=NO)ccc1OC(C)=O
72 to 74 | C=C(C)C(OC(=O)Nc1cc(OC(=O)Oc2cc(NC(=O)OC(C(=C)C)C(=O)OC)c(F)cc2Cl)c(Cl)cc1F)C(=O)OC (centres undefined)
73 to 75 | CS(=O)(=O)NC(CCCCCc1ccc(Cl)cc1)C(=O)O (centres undefined)
136 | CCOC(=O)C(=CNCC1CCCO1)C(=O)c1ccc(Br)cc1Cl (centres undefined)
188 to 189 | COc1cc(OC)cc(N2CCN(C(=O)N(CC(=O)O)c3cc(C)c(C)cc3OC)CC2)c1
231 to 234 | CC(C)(C)c1csc(NC(=O)c2ccn3c(=O)c(/C=C/C(=O)O)c(N4CCC(OC(=O)NCCO)CC4)nc3c2)n1
> 250 | O=C(O)c1ccc(OC(F)F)c2oc3ccncc3c12
83 to 86 | CCOC(=O)c1ccc(S(C)(=O)=O)c(-c2cc(C)no2)c1C
151 to 153 | COC(C)c1c(C(C)C)nc(C(C)C)c(CO)c1-c1ccc(F)cc1 (centres undefined)
282 to 284 | Cc1cc2c(c3ccc(=O)[nH]c13)OC(CNC=O)C2 (single isomer, unassigned; (+))
101 to 103 | CCC(CC)Nc1cc(C)nc2c1nc(C)n2-c1c(C)cc(C)cc1C
166 to 167 | CC(=O)Oc1ccc(-c2cnc(N(S(C)(=O)=O)S(C)(=O)=O)c(Cc3ccccc3)n2)cc1
145 to 146 | CC(O)c1onc(-c2ccccc2Cl)c1C(=O)c1nnn(Cc2cc(C(F)(F)F)cc(C(F)(F)F)c2)c1N1CCOCC1 (centres undefined)
122 to 123 | COc1ccc(-c2cc(C(=O)NCc3ccccn3)c(=O)n(C)n2)cc1
174 to 176 | CCn1c(C(=O)c2cc(C)cc(C=CC#N)c2)c(C(C)C)c(=O)[nH]c1=O
120 | Cc1c(C)c2c(c(C)c1O)CC[C@@](C)(CCBr)O2
82 to 84 | COC(=O)c1cc(O)nn1Cc1ccccc1
182 to 184 | N#Cc1ccc(NS(=O)(=O)c2ccc(Cl)cc2)cc1
93 to 94 | CCOC(=O)c1ccc2nccn2c1
108 to 110 | CC=CCC(O)(C(=O)c1ccccc1)C(=O)c1ccc(C(C)C)cc1 (centres undefined)
199 to 209 | Nc1nc(O)c2c(n1)NCC(CCc1ccc(C(=O)N[C@@H](CCC(=O)O)C(=O)O)c(F)c1)C2 (some centres undefined)
154 to 156 | O=C(c1ccc(Oc2ccc(S(=O)c3ccc(Oc4ccc(C(=O)C(Cl)(Cl)Cl)cc4)cc3)cc2)cc1)C(Cl)(Cl)Cl
147 to 148 | CON=Cc1ccc2c(c1)ncn2-c1cccc(-c2ccoc2)c1

melting point [°C] | SMILES
85 to 86.5 | CC1(C)CCc2cc(S(=O)(=O)C[N+](=O)[O-])ccc2O1
160 to 161 | O=[N+]([O-])c1cnc(-c2ccccc2)nc1Cl
164 to 166 | Oc1ccc(-c2cc3ccccc3nc2Cl)cc1
166 to 167 | COc1cc2c(cc1OC)CCC(C(=O)N1CCN(C(=O)c3ccc(OC)c(OC)c3OC)CC1)=C2
162 to 163 | O=C1c2ccc(F)cc2C(=O)N1c1cc([N+](=O)[O-])c(Cl)cc1F
159 to 160 | CC(C)COC(=O)C1(F)C(=O)NC(=O)NC1O/N=C\c1ccco1 (centres undefined)
134 | COc1ccc(S(=O)(=O)N(CCCN(C)C)c2ccc(Cl)cc2Cc2c(F)cccc2F)cc1OC
127 to 128 | CS(=O)(=O)c1ccc(C(Cc2ccc(F)cc2Cl)C(=O)Nc2nc3ccccc3o2)cc1 (centres undefined)
126 | CCOC(=O)Nc1nc(C)co1
151 | NS(=O)(=O)c1ccc(-n2nc(C(F)(F)F)cc2-c2ccc(-c3ccco3)cc2)cc1F
122 to 123 | CC(=O)NCCSCC(=O)[C@H](Cc1ccccc1)NC(=O)[C@H](CC(C)C)NC(=O)OCc1ccccc1
176 to 178 | CC(=O)NCC(C)n1nnnc1S (centres undefined)
218 to 220 | Cc1nc(-n2ccccc2=O)sc1C(=O)NCc1cccnc1
78 to 82 | Clc1ccc(N2CCN=C2C(Cn2cncn2)c2ccccc2)c(Cl)c1 (centres undefined)
> 340 | Nc1nc2[nH]c3ccccc3c2c(=O)[nH]1
153 to 155 | COc1cccc(Cc2cc(F)ccc2O)c1
157 | Cc1nc(Cc2ccccc2)cc(C(=O)O)c1OCCCN(C)C
248 to 250 | COc1ccc(OC)c(Cc2n[nH]c3c2c(=O)n(-c2ccccc2)c2ncccc32)c1
49 | CCOC(=O)c1ccc(OCCCCCCCCc2cc(C)no2)cc1
135 to 136 | CCNC(=S)Nc1nccs1
225 to 230 | Cc1cc(NCCO)c2[nH]nc(C)c2n1
194 | CNC(=O)c1cccc(NC(=O)Cc2csc3ccccc23)c1
118 to 119 | CC(C(=O)c1ccc(F)cc1F)c1ncccn1 (centres undefined)
80 to 93 | COC(=O)C=CC(CNC(=O)C(C)(Cc1c[nH]c2ccccc12)NC(=O)OC1C2CC3CC(C2)CC1C3)c1ccccc1 (centres undefined)

melting point [°C] | SMILES
168 to 169 | CCCC(=O)Nc1c(C)c2c(c(Cc3ccc(C(C)C)cc3)c1C)OCC2
114 to 118 | Cn1nc(C(=O)O)cc1OCCCN1CCN(c2cccc3sccc23)CC1
178 to 181 | Cn1c2c(c3ccc(-n4ccc(OCc5ccccc5)cc4=O)cc31)CNCCC2
135 to 137 | O=C(Oc1ccccc1)c1ccc(O)cc1O
59.1 | Cl/C(=C\n1ccnc1)c1ccc(Cl)cc1Cl
57 to 58 | CCCCNc1c(C(=O)OCC)c(C)nc2nnsc12
156 to 158 | O=C(O)c1ccccc1-c1ccc2c(C(=O)NCC34CC5CC(CC(C5)C3)C4)c(Cl)ccc2n1
127 to 130 | CC(C)c1nc(COC(N)=O)n(Cc2ccccn2)c1Sc1cc(Cl)cc(Cl)c1
110 to 111 | COc1ccc(Oc2ccccc2)c(NS(C)(=O)=O)c1
255 to 256 | O=C(c1ccccc1)c1nc2cnc3ccc(F)cc3c2[nH]1
155 to 156 | CCN1C(=O)C(C)(C)C(=O)N(C)c2cc(CN(CCn3ccc4oc(C)cc4c3=O)Cc3ccc(OC)nc3C)ccc21
119 to 121 | CCc1noc(C)c1-c1c(C(O)CN(C)C)c2ccccc2n1C (centres undefined)
196 to 199 | CN(N=Cc1ccco1)C(=O)c1[nH]c2ccccc2c1-c1ccccc1
238 to 239 | COC(=O)C(CC(C)C)NCC(=O)Nc1cccc2c1C(=O)c1c(NC(=O)CNC(CC(C)C)C(=O)OC)cccc1C2=O (centres undefined)
205 | CCOC(=O)c1cc2cc(NC(=O)OCc3ccccc3)ccc2nn1
167 | CC(=O)Oc1ccc(C(=O)Cl)cc1
160 to 168 | CNC(=O)c1ccccc1Nc1nc(Nc2ccc3c(c2)CCC(F)(F)CC3)ncc1Cl
110 to 112 | OC1C(COC2CC2)OC(n2cnc3c(NCc4cccc(I)c4)ncnc32)C1O (centres undefined)
120 to 121 | CC(C)(C)c1cc(C(=O)c2ccoc2)cc2c1OCC2(C)C
> 250 | CNC1Oc2cc(Cl)cc(-c3cc(F)ccc3F)c2O1 (centres undefined)
319 to 320 | O=C(NCc1ccc(Cl)cc1)c1cnc2ccc(O)cc2c1O
160 to 161 | COc1cc(COc2ccc(N)nn2)c(Br)c(OC)c1OC
193 to 198 | COc1ccc(C=CC(=O)c2ccc(O)cc2)cc1OC
248 to 250 | O=c1ccc(S(=O)(=O)c2c[nH]c3ccccc23)n[nH]1

melting point [°C] | SMILES
209 | CCOc1ccc2c(c1)n(C1CCOCC1)c(=O)n2Cc1ccc(C(=O)NC(C)(C)C)cc1OC
158 to 163 | CCc1nc(N)nc(N)c1CCCCc1cc(Cl)c(Cl)cc1Cl
205 to 206 | c1ccc2c(-c3nnn[nH]3)cccc2c1
134 to 136 | CCOC(=O)c1c(-c2ccc(C)cc2)c2ccncc2c(=O)n1C
97 to 99 | CC(C)(C)OC(=O)NCCCCC(=O)Nc1ccc(OCc2ccccc2)c(C(=O)NCCC(=O)OCc2ccccc2)c1
171 to 174 | COC(=O)c1cccnc1C(=O)c1ccc(-n2ccnc2)cc1
144 to 145 | CSc1nccc(-c2c(-c3ccc(F)cc3)nc3occn23)n1
100 to 103 | COc1cc2ccc(CC(=S)N3CCOCC3)cc2c(C)c1OC
190 | O=C1NC(=Cc2ccc(Cl)cc2)C(=O)C1=NO
79 to 80 | CCOC(=O)c1c(C)nc2c(c1N)c1ccccc1n2C
144 to 145 | CCCCONc1ncn(-c2c(C)cccc2C)c(=O)n1
145 | COc1ccccc1C(=O)c1c(SC)oc2ccccc2c1=O
270 | O=C1c2nccnc2C(O)N1c1ccc2ccc(Cl)nc2n1 (centres undefined)
189 to 190 | COc1cc(C(=O)CCC(=O)c2cc(OC)c(OC)c(OC)c2)cc(I)c1O
> 270 | CNCc1cccc(C2CCN(c3c(F)c(N)c4c(=O)c(C(=O)O)cn(C5CC5)c4c3F)C2)c1 (centres undefined)
> 250 | O=c1[nH]c2cc(C(F)(F)F)c(Cl)c(Cl)c2[nH]c1=O
166 to 169 | CCCCNC(=O)ON1C(C)(C)CC(OC(=O)C(CC)(CC)C(=O)OC2CC(C)(C)N(OC(=O)NCCCC)C(C)(C)C2)CC1(C)C
239 to 241 | O=C(O)[C@@H](CCN1Cc2ccccc2C1=O)Oc1c(Br)cc(-c2c3ccccc3c(Br)c3sc4ccccc4c23)cc1Br
126 to 127 | COc1ccc2c(c1)C(C(=O)O)CCC2 (centres undefined)
173 | Nc1c(F)cc(Cl)c2nc(Cl)sc12
179 to 181 | Cc1ccc(-c2ccc(C(=O)Nc3cc4ncc(CN5CCCC5)cc4cc3F)c(F)c2)cc1
137 to 139 | O=C(Nc1ccc(C2(O)CCCN(C(=O)OCc3ccccc3)C2)c(F)c1)OCc1ccccc1 (centres undefined)
181 | O=c1cc(-c2cnccn2)ss1
145 to 147 | COC(=O)c1cccc2c1ccn2S(=O)(=O)c1ccc(C)cc1

SMILES | melting point [°C]
C[Si](C)(C)CCc1cn(-c2c(Cl)cc(C(F)(F)F)cc2Cl)nc1C#N | 128 to 129
Cc1cc(N2CCNCC2)ccc1NS(C)(=O)=O | 79 to 81
Cc1cc2c(cc1C)n(C1CCNCC1)c(=O)n2C | 171 to 172
